In US10993935B2, “Compositions and methods for treatment of lung infections” (priority 2018, dated 2021):

Columns and labels:
P. aeruginosa strains = experiment: MIC and synergy testing (checkerboard/isobologram) of RFX and TOB; type: cell-based, Pseudomonas aeruginosa; conditions: for MIC RFX: RFX alone; for MIC RFX in Combination: in combination with TOB; for MIC TOB: TOB alone; for MIC TOB in Combination: in combination with RFX
Protocol: Minimum Inhibitory Concentration Testing. MIC testing was performed as previously described. Briefly, overnight culture of bacteria was diluted in 1:100 of a 0.5 McFarland standard as inoculum. The same number of cells was grown in LB broth containing serial, two-fold dilutions of rifaximin (RFX) or tobramycin (TOB). Growth was measured via optical density (OD) at 600 nm after 24 h incubation at 37° C. Concentrations of antibiotic required for inhibition of 50% and 90% of strains were determined.
Synergy Testing. Synergistic potential of RFX and TOB was performed by isobologram (checkerboard) analysis in 96-well plate format Briefly, PIB containing serial dilutions of each drug were plated in 64 wells of a 96-well plate with one drug vertically plated and the other horizontally plated. Bacterial cells of P. aeruginosa were grown 4 to 6 hours to an early log phase and then added to the wells of the plate. Growth in the wells was measured via OD at 600 nm after 24 h incubation at 37° C. The MIC and Fractional Inhibition Concentration (FIC) were calculated to determine synergism, antagonism or additivity between the tested strains of P. aeruginosa: PAO1, PAO581, PAO581 isogenic mutant, CF001, and CF010. The summative ΣFTC was calculated from the FICs and interpreted according to the standard index values: synergy ≤0.5; indifferent 0.5< to ≤4; antagonism >4. […]

P. aeruginosa = experiment: Uronic acid carbazole assay of alginate production; type: cell-based, Pseudomonas aeruginosa
Protocol: Data shown represent means of 5 replicates per group ±standard error (SE). Two-way ANOVA analysis was used with statistical significance set as a P value of <0.01 (****, P<0.0001; **, P<0.001; *, P<0.01).
Uronic Acid Carbazole Assay. Alginate production was measured via carbazole assay. Laboratory and clinical isolate strains were grown in PIB from a single colony isolation. The strains were then plated on 150 mm agar plates containing no antibiotic; RFX at concentrations of 10 μM (MIC50), 6 μM (MIC30), 2 μM (MIC10), and 0.2 μM (MIC1); or TOB at concentrations of 2 μM (MIC50), 1.2 μM (MIC30), 0.4 μM (MIC10), and 0.04 μM (MIC1) and incubated at 37° C. for 48 h. Sterile PBS (30 mL) was added to the plates and the cells plus their mucoid film were collected into 50 mL conical tubes. A 1 mL sample was taken to measure growth via OD at 600 nm. A 700 μL sample was then added to tubes containing 6 mL of a sulfuric acid-borate solution. A 200 μL aliquot of 0.1% carbazole was then added to the tubes and incubated for 30 m at 55° C. The alginate was then measured via OD at 530 nm and plotted against a standard curve made with D-mannuronic acid (Sigma-Aldrich). The reported values represent an average from three independent alginate collections with standard deviation.
To investigate the extent of this inhibition, PAO1, PAO581, and two mucoid P. aeruginosa CF isolates (CF001 and CF010) were grew on PIA plates containing sub-MIC concentrations of either TOB or RFX and measured alginate production with the carbazole assay. […] The MIC normalization was used to compare the effect of the two drugs on inhibition of alginate production, as this allowed the measurement of alginate made by the same number of bacterial cells.

[1] = Particle (droplet) size analysis of aerosol drugs; type: physicochemical; conditions: 60 mg/mL; TOB in 0.225% saline, RFX in 100% DMSO; nebulizer aerosol, Malvern Spraytec
Protocol: Particle Size Analysis of Aerosol Drugs. Droplet size analysis of drugs used for aerosol therapy was conducted by Spray Analytics (Lincolnshire, Ill.). Samples of TOB in 0.225% saline and RFX in 100% DMSO at concentrations of 60 mg/mL for both were prepared and submitted along with nebulizer unit used for animal experiments. A Malvern Spraytec was used for analysis with the tested product sprayed horizontally at less than 5 cm from the detector beam. The samples were measured in triplicates for 20-30 seconds of stable operation of the nebulizer. Refractive index and absorption values used were that of DMSO for RFX and water for TOB.
The potential adverse effects of using DMSO were first assessed by nebulizing DMSO alone to a group of C57BL/6 mice (n=8). This type of mice was used due to their natural resistance against infection based on our previous studies. […] Next, the delivery of both RFX and TOB via nebulization was optimized. […] To determine the dosage of each drug received by the mice, the lungs were homogenized and drug concentrations of TOB and RFX were determined via ELISA and HPLC, respectively. […] The droplet size for both TOB and RFX were determined to be identical with the average droplet size for TOB and RFX being 5.07 μm and 5.02 μm, respectively.

[2] = non-mucoid strain PAO1, sub-MIC concentrations (MIC1-MIC50) on PIA, TOB versus RFX

Q: With `CO[C@H]1/C=C/O[C@@]2(C)Oc3c(C)c(O)c4c(O)c(c5c(nc6cc(C)ccn65)c4c3C2=O)NC(=O)/C(C)=C\C=C\[C@H](C)[C@H](O)[C@@H](C)[C@@H](O)[C@@H](C)[C@H](OC(C)=O)[C@@H]1C` [RFX, rifaximin] as the molecule, how does the “FIC RFX” value (P. aeruginosa strains; strain CF001, M) read?
A: 0.25

Q: What about the “MIC RFX” value (P. aeruginosa strains; strain CF001, M) of the same molecule?
A: 16

Q: What about the “MIC RFX in Combination” value (P. aeruginosa strains; strain CF001, M) of the same molecule?
A: 4

Q: And the “MIC RFX” value (P. aeruginosa strains; strain CF003, NM)?
A: 4

Q: What about the “FIC RFX” value (P. aeruginosa strains; strain CF010, M) of the same molecule?
A: 0.25

Q: And the “MIC RFX” value (P. aeruginosa strains; strain CF010, M)?
A: 8

Q: What about the “MIC RFX in Combination” value (P. aeruginosa strains; strain CF010, M) of the same molecule?
A: 2

Q: And the “FIC RFX” value (P. aeruginosa strains; strain PAO1, NM)?
A: 0.25

Q: What about the “MIC RFX” value (P. aeruginosa strains; strain PAO1, NM (non-mucoid)) of the same molecule?
A: 16

Q: What about the “MIC RFX in Combination” value (P. aeruginosa strains; strain PAO1, NM) of the same molecule?
A: 4

Q: And the “FIC RFX” value (P. aeruginosa strains; strain PAO581, M)?
A: 0.25

Q: And the “MIC RFX” value (P. aeruginosa strains; strain PAO581, M (mucoid))?
A: 16

Q: And the “MIC RFX in Combination” value (P. aeruginosa strains; strain PAO581, M)?
A: 4

Q: What about the “FIC RFX” value (P. aeruginosa strains; strain PAO581 NM revertant) of the same molecule?
A: 0.25

Q: And the “MIC RFX” value (P. aeruginosa strains; strain PAO581 NM revertant)?
A: 16

Q: And the “MIC RFX in Combination” value (P. aeruginosa strains; strain PAO581 NM revertant)?
A: 4

Q: And the alginate production (P. aeruginosa; mucoid CF isolates CF001 and CF010, compared to TOB)?
A: significant decrease in alginate production

Q: What about the alginate production (P. aeruginosa; mucoid strain PAO581, all concentrations tested, compared to TOB) of the same molecule?
A: significantly decreased alginate production

Q: And the alginate production (P. aeruginosa; [2])?
A: no significant difference in alginate production

Q: What about the average droplet size [1] of the same molecule?
A: 5.02 μm

Q: For `NC[C@H]1O[C@H](O[C@H]2[C@H](O)[C@@H](O[C@H]3O[C@H](CO)[C@@H](O)[C@H](N)[C@H]3O)[C@H](N)C[C@@H]2N)[C@H](N)C[C@@H]1O` [TOB, tobramycin], which “FIC TOB” value (P. aeruginosa strains; strain CF001, M) is on record?
A: 0.25

Q: What about the “MIC TOB” value (P. aeruginosa strains; strain CF001, M) of the same molecule?
A: 2

Q: What about the “MIC TOB in Combination” value (P. aeruginosa strains; strain CF001, M) of the same molecule?
A: 0.5

Q: What about the “MIC TOB” value (P. aeruginosa strains; strain CF003, NM) of the same molecule?
A: 2

Q: And the “MIC TOB in Combination” value (P. aeruginosa strains; strain CF003, NM)?
A: 0.25

Q: What about the “FIC TOB” value (P. aeruginosa strains; strain CF010, M) of the same molecule?
A: 0.25

Q: What about the “MIC TOB” value (P. aeruginosa strains; strain CF010, M) of the same molecule?
A: 2

Q: And the “MIC TOB in Combination” value (P. aeruginosa strains; strain CF010, M)?
A: 0.5

Q: What about the “FIC TOB” value (P. aeruginosa strains; strain PAO1, NM) of the same molecule?
A: 0.125

Q: And the “MIC TOB” value (P. aeruginosa strains; strain PAO1, NM)?
A: 2

Q: What about the “MIC TOB in Combination” value (P. aeruginosa strains; strain PAO1, NM) of the same molecule?
A: 0.25

Q: And the “FIC TOB” value (P. aeruginosa strains; strain PAO581, M)?
A: 0.25

Q: And the “MIC TOB” value (P. aeruginosa strains; strain PAO581, M)?
A: 2

Q: And the “MIC TOB in Combination” value (P. aeruginosa strains; strain PAO581, M)?
A: 0.5

Q: What about the “FIC TOB” value (P. aeruginosa strains; strain PAO581 NM revertant) of the same molecule?
A: 0.25

Q: What about the “MIC TOB” value (P. aeruginosa strains; strain PAO581 NM revertant) of the same molecule?
A: 2

Q: And the “MIC TOB in Combination” value (P. aeruginosa strains; strain PAO581 NM revertant)?
A: 0.5

Q: What about the alginate production (P. aeruginosa; [2]) of the same molecule?
A: no significant difference in alginate production

Q: What about the average droplet size [1] of the same molecule?
A: 5.07 μm
